From patent publication US20190085024A1, “Alpha-Ketoamide Inhibitors Of Cysteine Proteases” (Phelix Therapeutics, priority 2017, published 2019) come the findings set out here.

One experiment deals with Cathepsin L (Homo sapiens, UniProt P07711). Briefly: Cathepsin L enzyme assay. Format: biochemical. The note with it: Ki by Morrison equation; pH 5.5, substrate Z-Phe-Arg-Amc; read-out: Cat L. An excerpt:
Two wells contained DMSO only for controls.
Velocity was converted to μM/sec.

In a further experiment the target is Calpain. Briefly: Calpain enzyme assay. The experiment is classed as biochemical. Conditions: Ki by Morrison equation; pH 7.5, 5 mM CaCl2.

Cathepsin L, sequence (P07711 114-333, species assumed): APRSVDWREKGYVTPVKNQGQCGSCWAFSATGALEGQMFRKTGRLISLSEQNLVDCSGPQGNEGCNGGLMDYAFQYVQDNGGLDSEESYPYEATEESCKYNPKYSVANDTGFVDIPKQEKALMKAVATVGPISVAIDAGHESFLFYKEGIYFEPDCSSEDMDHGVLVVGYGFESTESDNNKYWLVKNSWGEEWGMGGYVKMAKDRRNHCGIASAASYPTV

`CCC(C)C(NC(=O)C(CC(C)C)NC(=O)C(Cc1ccccc1)NC(=O)OCc1ccccc1)C(=O)C(=O)NC(CCCNC(=N)N)C(N)=O` (stereo not drawn) [PHELIX294, benzyl (1-amino-10-(sec-butyl)-6-carbamoyl-1-imino-13-isobutyl-8,9,12,15-tetraoxo-17-phenyl-2,7,11,14-tetraazaheptadecan-16-yl)carbamate]: the Ki on Cathepsin L was 2.53 nM; on Calpain, 0.49 nM.

For `CCC(C)C(NC(=O)C(CC(C)C)NC(=O)OCc1ccccc1)C(=O)C(=O)NC(C)C(=O)NC(Cc1ccc2ccccc2c1)C(N)=O` (stereo not drawn) [PHELIX295, benzyl (1-((1-((1-((1-amino-3-(naphthalen-2-yl)-1-oxopropan-2-yl)amino)-1-oxopropan-2-yl)amino)-4-methyl-1,2-dioxohexan-3-yl)amino)-4-methyl-1-oxopentan-2-yl)carbamate], the Ki at Cathepsin L was 0.84 nM; on Calpain, 2.05 nM.

Turning to `CCC(C)C(NC(=O)C(CC(C)C)NC(=O)OCc1ccccc1)C(=O)C(=O)NC(C)(C)C(=O)NC(Cc1ccc2ccccc2c1)C(N)=O` (stereo not drawn) [PHELIX296, benzyl (1-((1-((1-((1-amino-3-(naphthalen-2-yl)-1-oxopropan-2-yl)amino)-2-methyl-1-oxopropan-2-yl)amino)-4-methyl-1,2-dioxohexan-3-yl)amino)-4-methyl-1-oxopentan-2-yl)carbamate], the figures for the Ki on Cathepsin L and at Calpain were 1720 nM and 1550 nM, respectively.

Take `CCC(C)C(NC(=O)C(CC(C)C)NC(=O)OCc1ccccc1)C(=O)C(=O)NC1(C(=O)NC(Cc2ccc3ccccc3c2)C(N)=O)CC1` (stereo not drawn) [PHELIX298, benzyl (1-((1-((1-((1-amino-3-(naphthalen-2-yl)-1-oxopropan-2-yl)carbamoyl)cyclopropyl)amino)-4-methyl-1,2-dioxohexan-3-yl)amino)-4-methyl-1-oxopentan-2-yl)carbamate]: the figures for the Ki on Cathepsin L and at Calpain were 315 nM and 2570 nM, respectively.

Regarding `CCC(C)C(NC(=O)C(CC1CC1)NC(=O)OCc1ccccc1)C(=O)C(=O)NCC(=O)NC(Cc1ccc2ccccc2c1)C(N)=O` (stereo not drawn) [PHELIX299, benzyl (1-((1-((2-((1-amino-3-(naphthalen-2-yl)-1-oxopropan-2-yl)amino)-2-oxoethyl)amino)-4-methyl-1,2-dioxohexan-3-yl)amino)-3-cyclopropyl-1-oxopropan-2-yl)carbamate], the Ki worked out at 12.3 nM on Cathepsin L and 4.83 nM on Calpain.

`CCC(C)C(NC(=O)C(Cc1c[nH]cn1)NC(=O)Cc1ccccc1)C(=O)C(=O)NCC(=O)NC(Cc1ccc2ccccc2c1)C(N)=O` (stereo not drawn) [PHELIX302, 3-(3-(1H-imidazol-4-yl)-2-(2-phenylacetamido)propanamido)-N-(2-((1-amino-3-(naphthalen-2-yl)-1-oxopropan-2-yl)amino)-2-oxoethyl)-4-methyl-2-oxohexanamide]: the Ki at Cathepsin L worked out at 389 nM; at Calpain, 201 nM.

For the compound `CCC(C)C(NC(=O)C(CC(C)C)NC(=O)OCc1ccccc1)C(=O)C(=O)NCC(=O)NCc1ccc2ccccc2c1` (stereo not drawn) [PHELIX303, benzyl (4-methyl-1-((4-methyl-1-((2-((naphthalen-2-ylmethyl)amino)-2-oxoethyl)amino)-1,2-dioxohexan-3-yl)amino)-1-oxopentan-2-yl)carbamate], the values for the Ki at Cathepsin L and at Calpain were 1.14 nM and 6.03 nM, respectively.

For the compound `CC[C@H](C)C(NC(=O)[C@H](CC(C)C)NC(=O)OCc1ccccc1)C(=O)C(=O)NCC(=O)N[C@H](Cc1ccc2ccccc2c1)C(N)=O` (stereo partly drawn) [PHELIX304, benzyl (1-((1-((2-((1-amino-3-(naphthalen-2-yl)-1-oxopropan-2-yl)amino)-2-oxoethyl)amino)-4-methyl-1,2-dioxohexan-3-yl)amino)-4-methyl-1-oxopentan-2-yl)carbamate], the results for the Ki at Cathepsin L and on Calpain were 0.6 nM and 8.24 nM, respectively.

Consider `CCC(C)C(C(=O)C(=O)NCC(=O)NC(Cc1ccc2ccccc2c1)C(N)=O)N(C)C(=O)C(CC(C)C)NC(=O)OCc1ccccc1` (stereo not drawn) [PHELIX305, benzyl (1-((1-((2-((1-amino-3-(naphthalen-2-yl)-1-oxopropan-2-yl)amino)-2-oxoethyl)amino)-4-methyl-1,2-dioxohexan-3-yl)(methyl)amino)-4-methyl-1-oxopentan-2-yl)carbamate], for which the Ki was 912 nM at Cathepsin L and 9450 nM on Calpain.

As to `CCC(C)C(C(=O)C(=O)NCC(=O)NC(Cc1ccc2ccccc2c1)C(N)=O)N(C)C(=O)C(CC(C)C)NC(=O)OCc1ccccc1` (stereo not drawn) [PHELIX306, benzyl (1-((1-((2-((1-amino-3-(naphthalen-2-yl)-1-oxopropan-2-yl)amino)-2-oxoethyl)amino)-4-methyl-1,2-dioxohexan-3-yl)(methyl)amino)-4-methyl-1-oxopentan-2-yl)carbamate], the Ki at Cathepsin L stood at 77.6 nM; at Calpain it was 446 nM.

On to `CCC(C)C(NC(=O)C(Cc1c[nH]cn1)NC(=O)Cc1ccccc1)C(=O)C(=O)NCC(=O)NC(Cc1ccc2ccccc2c1)C(N)=O` (stereo not drawn) [PHELIX308, 3-(3-(1H-imidazol-4-yl)-2-(2-phenylacetamido)propanamido)-N-(2-((1-amino-3-(naphthalen-2-yl)-1-oxopropan-2-yl)amino)-2-oxoethyl)-4-methyl-2-oxohexanamide], for which the Ki at Cathepsin L came out at 956 nM; on Calpain it was 1510 nM.

`CCC(C)C(NC(=O)C(Cc1c[nH]cn1)NC(=O)OCc1ccccc1)C(=O)C(=O)NCC(=O)NC(Cc1ccc2ccccc2c1)C(N)=O` (stereo not drawn) [PHELIX311, benzyl (1-((1-((2-((1-amino-3-(naphthalen-2-yl)-1-oxopropan-2-yl)amino)-2-oxoethyl)amino)-4-methyl-1,2-dioxohexan-3-yl)amino)-3-(1H-imidazol-4-yl)-1-oxopropan-2-yl)carbamate]: the Ki turned out to be 106 nM on Cathepsin L and 309 nM on Calpain.

For `CCC(C)C(NC(=O)C(CC(C)C)NC(=O)Cc1cccnc1)C(=O)C(=O)NCC(=O)NC(Cc1ccc2ccccc2c1)C(N)=O` (stereo not drawn) [PHELIX312, N-(2-((1-amino-3-(naphthalen-2-yl)-1-oxopropan-2-yl)amino)-2-oxoethyl)-4-methyl-3-(4-methyl-2-(2-(pyridin-3-yl)acetamido)pentanamido)-2-oxohexanamide], the Ki on Cathepsin L turned out to be 2.65 nM; on Calpain, 0.81 nM.

Take `CCC(C)C(NC(=O)C(CC(C)C)NC(=O)CN1CCN(C)CC1)C(=O)C(=O)NCC(=O)NC(Cc1ccc2ccccc2c1)C(N)=O` (stereo not drawn) [PHELIX313, N-(2-((1-amino-3-(naphthalen-2-yl)-1-oxopropan-2-yl)amino)-2-oxoethyl)-4-methyl-3-(4-methyl-2-(2-(4-methylpiperazin-1-yl)acetamido)pentanamido)-2-oxohexanamide]: the Ki is under 0.1 nM on Cathepsin L and 9.91 nM on Calpain.

`CCC(C)C(NC(=O)C(CC(C)C)NC(=O)OCc1ccccc1)C(=O)C(=O)NC(CC(N)=O)C(=O)NC(Cc1ccc2ccccc2c1)C(N)=O` (stereo not drawn) [PHELIX316, benzyl (1-((1-((4-amino-1-((1-amino-3-(naphthalen-2-yl)-1-oxopropan-2-yl)amino)-1,4-dioxobutan-2-yl)amino)-4-methyl-1,2-dioxohexan-3-yl)amino)-4-methyl-1-oxopentan-2-yl)carbamate]: the Ki on Cathepsin L was 3.33 nM; at Calpain, 8.01 nM.

Take `CCC(C)C(NC(=O)C(CC(C)C)NC(=O)OCc1ccccc1)C(=O)C(=O)NC(CCC(N)=O)C(=O)NC(Cc1ccc2ccccc2c1)C(N)=O` (stereo not drawn) [PHELIX317, benzyl (1-((1-((5-amino-1-((1-amino-3-(naphthalen-2-yl)-1-oxopropan-2-yl)amino)-1,5-dioxopentan-2-yl)amino)-4-methyl-1,2-dioxohexan-3-yl)amino)-4-methyl-1-oxopentan-2-yl)carbamate]: the results for the Ki at Cathepsin L and on Calpain were 1.37 nM and 19.8 nM, respectively.

Regarding `CCC(C)C(NC(=O)C(CC(C)C)NC(=O)OCc1ccccc1)C(=O)C(=O)NCC(=O)NC(Cc1ccccc1)C(N)=O` (stereo not drawn) [PHELIX318, benzyl (1-((1-((2-((1-amino-1-oxo-3-phenylpropan-2-yl)amino)-2-oxoethyl)amino)-4-methyl-1,2-dioxohexan-3-yl)amino)-4-methyl-1-oxopentan-2-yl)carbamate], the Ki on Cathepsin L is 3.82 nM; on Calpain it was 1.63 nM.

In the case of `CCC(C)C(NC(=O)C(CCC(N)=O)NC(=O)Cc1ccccc1)C(=O)C(=O)NCC(=O)NC(Cc1ccc2ccccc2c1)C(N)=O` (stereo not drawn) [PHELIX320, N^1-(1-((2-((1-amino-3-(naphthalen-2-yl)-1-oxopropan-2-yl)amino)-2-oxoethyl)amino)-4-methyl-1,2-dioxohexan-3-yl)-2-(2-phenylacetamido)pentanediamide], the Ki was found to be 495 nM at Cathepsin L and 38.6 nM on Calpain.

In the case of `CCC(C)C(NC(=O)C(Cc1ccccc1)NC(=O)Cc1ccccc1)C(=O)C(=O)NCC(=O)NC(Cc1ccc2ccccc2c1)C(N)=O` (stereo not drawn) [PHELIX321, N-(2-((1-amino-3-(naphthalen-2-yl)-1-oxopropan-2-yl)amino)-2-oxoethyl)-4-methyl-2-oxo-3-(3-phenyl-2-(2-phenylacetamido)propanamido)hexanamide], the results for the Ki at Cathepsin L and at Calpain were under 0.1 nM and 83.9 nM, respectively.

For the compound `CCC(C)C(NC(=O)C(CC(N)=O)NC(=O)Cc1ccccc1)C(=O)C(=O)NCC(=O)NC(Cc1ccc2ccccc2c1)C(N)=O` (stereo not drawn) [PHELIX322, N^1-(1-((2-((1-amino-3-(naphthalen-2-yl)-1-oxopropan-2-yl)amino)-2-oxoethyl)amino)-4-methyl-1,2-dioxohexan-3-yl)-2-(2-phenylacetamido)succinamide], the Ki was determined as 101 nM at Cathepsin L and 71 nM at Calpain.

In the case of `CCC(C)C(NC(=O)C(NC(=O)Cc1ccccc1)C(C)(C)C)C(=O)C(=O)NCC(=O)NC(Cc1ccc2ccccc2c1)C(N)=O` (stereo not drawn) [PHELIX323, N-(2-((1-amino-3-(naphthalen-2-yl)-1-oxopropan-2-yl)amino)-2-oxoethyl)-3-(3,3-dimethyl-2-(2-phenylacetamido)butanamido)-4-methyl-2-oxohexanamide], the Ki at Cathepsin L worked out at 273 nM; at Calpain, 2370 ± 1050 nM.
